Read-outs that look alike come from different tables or passages of the source.
How the values were obtained:
[1] = system: Pseudomonas DacB Mutant (hiperproducing AMPC); assay: Silver-antibiotics interaction study, MicroScan (Example 4); type: cell-based, Pseudomonas aeruginosa; settings: subinhibitory colloidal silver (½ or 1/10 MIC)
Procedure: (§1) The effect of subinhibitory concentrations of colloidal silver (namely, ½ and 1/10 dilution of the MIC obtained in Example 3) in the presence of different types of antibiotics was tested.
(§2) For this, an automated equipment MicroScan AutoScan 4 (Siemens) was used, using Gram negative (Becman Coulter NM37) and Gram positive (Becman Coulter PM28) cards.
(§3) Each of these broths served as inoculum for the cards with antibiotics (for each strain, thus 3 cards were prepared). • Incubating the plates with antibiotics (in presence and absence of silver) at 37° C. for 24 h. • Reading the cards by use of LabPro software, and interpretation of the obtained values of MIC (determine if the silver reduces the initial MCI of each antibiotic).

[2] = system: S. aureus Sa-10 (strain 9); assay: Epsilometry E-test, absence and presence of silver (Example 5); type: cell-based; settings: Staphylococcus aureus, strain 9 (S. aureus Sa-10)
Procedure: (§4) In order to evaluate the synergy of collargol-antibiotics an epsilometry E-test was carried out. Said test is based on the agar diffusion method and relates to using a strip with a predefined steady gradient of 15 concentrations of the antibiotic being tested. After strain growth, an elliptical inhibition halo, being the MIC the antibiotic concentration corresponding to the cutting point.
(§5) It was performed for the antibiotics vancomycin, linezolid and tedizolid, in absence and presence of silver (½ and 1/10 MIC).

[3] = system: S. aureus Sa-11 (strain 10); assay: as above; type: cell-based; settings: Staphylococcus aureus, strain 10 (S. aureus Sa-11)
Procedure: as §4, §5

[4] = system: S. aureus Sa-12 (strain 11); assay: as above; type: cell-based; settings: Staphylococcus aureus, strain 11 (S. aureus Sa-12)
Procedure: as §4, §5

[5] = system: S. aureus Sa-13 (strain 12); assay: as above; type: cell-based; settings: Staphylococcus aureus, strain 12 (S. aureus Sa-13)
Procedure: as §4, §5

[6] = system: S. aureus Sa-3 (strain 3); assay: as above; type: cell-based; settings: Staphylococcus aureus, strain 3 (S. aureus Sa-3)
Procedure: as §4, §5

[7] = system: S. epidermidis Se-1 (strain 14); assay: as above; type: cell-based; settings: Staphylococcus epidermidis, strain 14 (S. epidermidis Se-1)
Procedure: as §4, §5

[8] = system: S.aureus ATCC 700698 Sa-SARM (strain 15); assay: as above; type: cell-based; settings: Staphylococcus aureus, ATCC700698, strain 15 (S.aureus ATCC 700698, Sa-SARM)
Procedure: as §4, §5

[9] = system: S. aureus Sa-1 (strain 1); assay: as above; type: cell-based; settings: Staphylococcus aureus, strain 1 (S. aureus Sa-1)
Procedure: as §4, §5

[10] = system: S. aureus Sa-9 (strain 8); assay: as above; type: cell-based; settings: Staphylococcus aureus, strain 8 (S. aureus Sa-9)
Procedure: as §4, §5

Klebsiella BLEE + = assay: Silver-antibiotics interaction study, MicroScan (Example 4); type: cell-based, Klebsiella pneumoniae; settings: subinhibitory colloidal silver (½ or 1/10 MIC)
Procedure: as §1, §2, §3

[11] = system: Pseudomonas MexR Mutant (efflux pump over-expression); assay: as above; type: cell-based, Pseudomonas aeruginosa; settings: colloidal silver at ½ MIC
From the text: as §2

E. coli BLEE + = assay: as above; type: cell-based, Escherichia coli; settings: subinhibitory colloidal silver (½ or 1/10 MIC)
Procedure: as §1, §2, §3

[12] = MH agar with 1/10 MIC of colargol, read-out: MIC (E-test) MH-1/10 MIC
[13] = MH agar with ½ MIC of colargol, read-out: MIC (E-test) MH-½ MIC
[14] = MH agar without silver, read-out: MIC (E-test) MH (without silver)

In the case of `CO/N=C(\C(=O)N[C@@H]1C(=O)N2C(C(=O)[O-])=C(C[N+]3(C)CCCC3)CS[C@H]12)c1csc(N)n1` [Cefepime], the “Effect of silver on the strain's sensitivity to the antibiotic” value (“Effect of silver” below) [1] is reported as “moderate effect improving the MIC values”.

With `C[C@@H]1O[C@@H]1P(=O)(O)O` [Fosfomicine, Fosfomycin] the “Effect of silver” value [1] was “change to sensitive”.

`CC(=O)NC[C@H]1CN(c2ccc(N3CCOCC3)c(F)c2)C(=O)O1` [Linezolid] was tested, and the MIC [2, 12] was 1 µg/mL, the MIC [2, 13] was 0.75 µg/mL and the MIC [2, 14] was 0.75 µg/mL. For the same molecule, the MIC [3, 12] was 1.5 µg/mL, the MIC [3, 13] was 1.5 µg/mL and the MIC [3, 14] was 1.5 µg/mL. The MIC [4, 12] was 0.5 µg/mL, the MIC [4, 13] was 0.5 µg/mL and the MIC [4, 14] was 1 µg/mL. It also gave an MIC [5, 12] of 0.38 µg/mL, an MIC [5, 13] of 0.5 µg/mL and an MIC [5, 14] of 0.5 µg/mL. For the same molecule, the MIC [6, 12] was 1.5 µg/mL, the MIC [6, 13] was 1 µg/mL and the MIC [6, 14] was 1.5 µg/mL. For the same molecule, the MIC [7, 12] was 0.75 µg/mL, the MIC [7, 13] was 0.5 µg/mL and the MIC [7, 14] was 0.75 µg/mL. The MIC [8, 12] was 0.5 µg/mL, the MIC [8, 13] was 0.38 µg/mL and the MIC [8, 14] was 0.5 µg/mL.

For `CCN1CCN(C(=O)N[C@@H](C(=O)N[C@@H]2C(=O)N3[C@@H]2SC(C)(C)[C@@H]3C(=O)O)c2ccccc2)C(=O)C1=O` [Piperacillin], the “Effect of silver” value [1] was “moderate effect improving the MIC values”.

`Cn1nnc(-c2ccc(-c3ccc(N4C[C@H](CO)OC4=O)cc3F)cn2)n1` [Tedizolid] showed an MIC [9, 12] of 0.25 µg/mL, an MIC [9, 13] of 0.19 µg/mL and an MIC [9, 14] of 0.19 µg/mL. The MIC [2, 12] was 0.38 µg/mL, the MIC [2, 13] was 0.38 µg/mL and the MIC [2, 14] was 0.5 µg/mL. The MIC [3, 13] was 0.25 µg/mL, the MIC [3, 14] was 0.38 µg/mL and the MIC [4, 13] was 0.25 µg/mL. The MIC [4, 14] was 0.25 µg/mL, the MIC [6, 12] was 0.19 µg/mL and the MIC [6, 13] was 0.125 µg/mL. It also gave an MIC [6, 14] of 0.19 µg/mL, an MIC [10, 12] of 0.19 µg/mL and an MIC [10, 13] of 0.19 µg/mL. The MIC [10, 14] was 0.25 µg/mL, the MIC [7, 12] was 0.38 µg/mL and the MIC [7, 13] was 0.25 µg/mL. For the same molecule, the MIC [7, 14] was 0.38 µg/mL.

In the case of `C[C@H]1[C@H](NC(=O)/C(=N\OC(C)(C)C(=O)O)c2csc(N)n2)C(=O)N1S(=O)(=O)O` [aztreonam, Aztreonam], the “Effect of silver” value [1] is reported as “change to sensitive” and the “Effect of silver” value (Klebsiella BLEE +) is reported as “becomes sensitive”.

In the case of `CO/N=C(\C(=O)N[C@@H]1C(=O)N2C(C(=O)O)=C(COC(C)=O)CS[C@H]12)c1csc(N)n1` [cefotaxime, Cefotaxime], the “Effect of silver” value [11] is reported as “improvement in the MIC”.

With `NC[C@H]1O[C@H](O[C@H]2[C@H](O)[C@@H](O[C@H]3O[C@H](CO)[C@@H](O)[C@H](N)[C@H]3O)[C@H](N)C[C@@H]2N)[C@H](N)C[C@@H]1O` [tobramycin, Tobramycin] the “Effect of silver” value (E. coli BLEE +) was “becomes sensitive”.

In the case of Colistin, the “Effect of silver” value [11] is reported as “improvement in the MIC” and the “Effect of silver” value [1] is reported as “moderate effect improving the MIC values”.

With Gentamicin the “Effect of silver” value (E. coli BLEE +) was “becomes sensitive”.

— patent publication US11304974B2, “Nanosystems comprising silver and antibiotics and their use for the treatment of bacterial infections” (priority 2017, dated 2022)
